Source: the supplement of paper PMC10307832

Experiments:
Test in all cases: relative viability (nuclei count vs DMSO), 5 days (fraction); higher = more cells survive
R406 = compound: COc1cc(Nc2ncc(F)c(Nc3ccc4c(n3)NC(=O)C(C)(C)O4)n2)cc(OC)c1OC [R406]
How it was run: (§1)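 Five library-drug doses, separated by factors of √10, were pinned into 1536-well plates holding lung cancer cell lines after an overnight stay at 37 °C. Cells were fixed, permeabilised and Hoechst-stained in one step after 5 days without medium change, then imaged at 4×. Viability compares treated-well with vehicle-well nuclei, counted in MetaXpress, as a median across plates. Passing plates had control CV below 25% and at least one doubling.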

Daporinad = compound: O=C(/C=C/c1cccnc1)NCCCCC1CCN(C(=O)c2ccccc2)CC1 [Daporinad]
How it was run: as §1

Daporinad + Navitoclax = compound: O=C(/C=C/c1cccnc1)NCCCCC1CCN(C(=O)c2ccccc2)CC1 [Daporinad] + CC1(C)CCC(c2ccc(Cl)cc2)=C(CN2CCN(c3ccc(C(=O)NS(=O)(=O)c4ccc(N[C@H](CCN5CCOCC5)CSc5ccccc5)c(S(=O)(=O)C(F)(F)F)c4)cc3)CC2)C1 [Navitoclax] (partner 0.5 µM)
How it was run: (§2)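 Lung cancer cell lines in 1536-well plates got either a single drug or a fixed anchor-drug dose together with five library-drug doses (not always all listed) in √10 steps, by pin tool, on the day after seeding. Nuclei were counted after 5 days, and relative viability is the treated-to-vehicle ratio of nuclei counts. Values are medians of duplicate plates.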

R406 + Trametinib = compound: COc1cc(Nc2ncc(F)c(Nc3ccc4c(n3)NC(=O)C(C)(C)O4)n2)cc(OC)c1OC [R406] + CC(=O)Nc1cccc(-n2c(=O)n(C3CC3)c(=O)c3c(Nc4ccc(I)cc4F)n(C)c(=O)c(C)c32)c1 [Trametinib] (partner 0.02 µM)
How it was run: as §2

| Cell Line | relative viability (R406; 0.08 µM) | relative viability (R406; 0.253 µM) | relative viability (R406; 0.8 µM) | relative viability (R406; 2.53 µM) | relative viability (R406; 8 µM) | relative viability (Daporinad; 0.0005 µM) | relative viability (Daporinad; 0.001581 µM) | relative viability (Daporinad; 0.005 µM) | relative viability (Daporinad; 0.01581 µM) | relative viability (Daporinad + Navitoclax; first compound 0.0005 µM) | relative viability (Daporinad + Navitoclax; first compound 0.001581 µM) | relative viability (Daporinad + Navitoclax; first compound 0.005 µM) | relative viability (Daporinad + Navitoclax; first compound 0.01581 µM) | relative viability (R406 + Trametinib; first compound 0.08 µM) | relative viability (R406 + Trametinib; first compound 0.253 µM) | relative viability (R406 + Trametinib; first compound 0.8 µM) | relative viability (R406 + Trametinib; first compound 2.53 µM) | relative viability (R406 + Trametinib; first compound 8 µM) |
| --- | --- | --- | --- | --- | --- | --- | --- | --- | --- | --- | --- | --- | --- | --- | --- | --- | --- | --- |
| 201T | 0.929 | 1.02 | 1.06 | 0.844 | 0.67 | 0.962 | 1.04 | 0.972 | 1.01 | 1.23 | 1.19 | 1.21 | 1.2 | 0.696 | 0.72 | 0.726 | 0.674 | 0.679 |
| A549 | 0.898 | 1.02 | 1.1 | 0.857 | 0.518 | 1.03 | 1.05 | 0.944 | 0.903 | 1.3 | 1.21 | 1.12 | 0.814 |  |  |  |  |  |
| A-427 | 0.974 | 1.23 | 1.14 | 0.708 | 0.639 | 0.952 | 1.12 | 0.982 | 0.602 | 0.964 | 1.04 | 0.722 | 0.691 | 0.755 | 0.745 | 0.857 | 0.62 | 0.541 |
| ABC-1 | 0.761 | 1.06 | 0.895 | 0.619 | 0.535 | 0.802 | 0.934 | 0.832 | 0.659 |  |  |  |  |  |  |  |  |  |
| BEN | 0.862 | 1.24 | 1.03 | 1.05 | 0.832 | 0.962 | 1.04 | 0.969 | 1.31 | 0.074 | 0.147 | 0.0521 | 0.083 | 0.974 | 0.992 | 1.24 | 1.17 | 0.897 |
| CAL-12T | 0.993 | 1.22 | 1.12 | 0.511 | 0.434 | 0.904 | 1.03 | 0.735 | 0.269 | 1.33 | 0.925 | 0.518 | 0.172 | 0.343 | 0.351 | 0.378 | 0.312 | 0.175 |
| COR-L23 | 0.953 | 1.17 | 1.16 | 0.901 | 0.592 | 1.02 | 1.04 | 0.908 | 0.275 | 1.01 | 0.966 | 0.916 | 0.186 | 0.627 | 0.669 | 0.682 | 0.217 | 0.338 |
| COR-L 105 | 0.911 | 1.05 | 1.12 | 0.666 | 0.418 | 0.906 | 0.976 | 0.991 | 0.969 | 0.777 | 0.883 | 0.722 | 0.618 | 0.444 | 0.497 | 0.432 | 0.459 | 0.395 |
| Calu-6 | 0.98 | 1.06 | 1.11 | 0.724 | 0.503 | 0.955 | 1.04 | 0.917 | 0.533 | 0.853 | 0.681 | 0.527 | 0.196 |  |  |  |  |  |
| ChaGo-K-1 | 0.948 | 1.12 | 0.974 | 0.944 | 0.73 | 1.03 | 0.86 | 0.94 | 0.509 | 1.02 | 0.58 | 0.845 | 0.492 | 0.853 | 0.962 | 0.982 | 0.844 | 0.763 |
| EBC-1 | 0.99 | 1.14 | 1.25 | 0.877 | 0.481 | 0.829 | 1.06 | 1.03 | 1.08 | 0.347 | 0.4 | 0.405 | 0.389 |  |  |  |  |  |
| EKVX | 0.928 | 1.12 | 1.1 | 0.855 | 0.722 | 0.933 | 0.95 | 0.974 | 1.14 | 0.808 | 0.914 | 0.97 | 1.11 | 0.405 | 0.383 | 0.348 | 0.364 | 0.264 |
| EMC-BAC-2 | 0.917 | 1.13 | 1.08 | 0.849 | 0.405 | 1.01 | 1.09 | 0.766 | 0.487 | 1.16 | 1.16 | 1.01 | 0.318 | 0.907 | 0.956 | 0.804 | 1.06 | 0.917 |
| EPLC-272H | 0.919 | 0.975 | 1.07 | 0.438 | 0.379 | 0.856 | 1.04 | 1.06 | 1.04 | 1.22 | 1.47 | 1.28 | 1.38 | 0.324 | 0.333 | 0.305 | 0.166 | 0.21 |
| H3255 | 0.943 | 1.16 | 0.989 | 0.859 | 0.873 | 0.842 | 1 | 1.06 | 1.19 | 0.483 | 0.429 | 0.584 | 0.695 | 0.549 | 0.693 | 0.563 | 0.577 | 0.487 |
| HARA | 0.975 | 0.965 | 1.1 | 0.676 | 0.365 | 0.903 | 0.958 | 0.964 | 0.583 | 1.15 | 1.08 | 1.14 | 0.275 | 0.745 | 0.629 | 0.878 | 0.794 | 0.13 |
| HCC-15 | 0.919 | 1.23 | 1.17 | 0.81 | 0.629 | 0.967 | 1.15 | 1.14 | 1.05 | 0.661 | 0.776 | 0.716 | 0.764 | 0.392 | 0.385 | 0.406 | 0.415 | 0.331 |
| HCC-44 | 0.979 | 0.976 | 0.94 | 0.928 | 0.711 | 0.992 | 0.993 | 0.97 | 1 | 1.02 | 0.99 | 1.02 | 0.897 | 1.04 | 1.1 | 1.12 | 0.984 | 0.966 |
| HCC-78 | 0.953 | 1.08 | 1.06 | 0.708 | 0.48 | 0.81 | 0.938 | 1.06 | 1.12 | 0.644 | 0.935 | 0.842 | 1.05 | 0.757 | 0.687 | 0.749 | 0.504 | 0.424 |
